Measured values taken from US12097241B2, “Methods of treating kidney failure, and/or improving or stablizing renal function using modified relaxin polypeptides” (BRISTOL-MYERS SQUIBB COMPANY, priority 2017, dated 2024).

molecular target: T1, human RXFP1 receptor (Homo sapiens, UniProt Q9HBX9); assay: Intracellular cAMP accumulation assay; type: cell-based
T1 construct: expressed in transfected cells
T1 sequence (Q9HBX9 1-757): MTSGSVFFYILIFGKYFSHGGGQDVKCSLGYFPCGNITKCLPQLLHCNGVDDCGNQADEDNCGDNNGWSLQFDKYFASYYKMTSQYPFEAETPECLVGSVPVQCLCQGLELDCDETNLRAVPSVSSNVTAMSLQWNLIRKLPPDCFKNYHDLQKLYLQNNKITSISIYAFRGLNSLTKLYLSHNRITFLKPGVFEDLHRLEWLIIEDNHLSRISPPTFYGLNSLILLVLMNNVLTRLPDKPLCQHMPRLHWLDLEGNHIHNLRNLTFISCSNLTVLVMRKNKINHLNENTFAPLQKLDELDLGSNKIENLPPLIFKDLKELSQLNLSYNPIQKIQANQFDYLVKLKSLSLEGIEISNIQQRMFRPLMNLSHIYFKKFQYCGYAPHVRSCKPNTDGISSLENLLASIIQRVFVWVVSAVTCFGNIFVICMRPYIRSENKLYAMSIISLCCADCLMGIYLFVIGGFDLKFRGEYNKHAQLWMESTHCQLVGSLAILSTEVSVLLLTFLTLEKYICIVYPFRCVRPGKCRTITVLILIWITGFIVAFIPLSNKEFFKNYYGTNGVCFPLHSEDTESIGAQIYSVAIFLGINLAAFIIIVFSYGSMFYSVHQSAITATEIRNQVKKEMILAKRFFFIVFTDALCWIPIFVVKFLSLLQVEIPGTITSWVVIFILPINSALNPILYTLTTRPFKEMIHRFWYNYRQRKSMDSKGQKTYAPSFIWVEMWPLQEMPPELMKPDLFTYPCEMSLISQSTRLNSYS

SMILES	EC50 [nM]
CCCCCCCCCCCCCCC(=O)NCC(=O)NCC(=O)NCC(=O)N[C@@H](CCC(=O)O)C(=O)N[C@@H](CCC(=O)O)C(=O)N1CCC[C@H]1C(=O)N[C@@H](CCC(=O)O)C(=O)N[C@@H](CCC(=O)O)C(=O)N[C@@H](CCC(=O)O)C(=O)N[C@@H](CCC(=O)O)C(=O)N1CCC[C@H]1C(=O)N[C@@H](CCC(=O)O)C(=O)N[C@@H](CCC(=O)O)C(=O)N[C@@H](CCC(=O)O)C(=O)N[C@@H](CCC(=O)O)C(=O)N1CCC[C@H]1C(=O)N[C@@H](CCC(=O)O)C(=O)N[C@@H](CCC(=O)O)C(=O)N[C@@H](CCC(=O)O)C(=O)N[C@@H](CCC(=O)O)C(=O)NCCON=C(C)c1ccc(C[C@H](N)C(=O)N[C@@H](CC(C)C)C(=O)N[C@@H](Cc2ccc(O)cc2)C(=O)N[C@@H](CO)C(=O)N[C@@H](C)C(=O)N[C@@H](CC(C)C)C(=O)N[C@@H](C)C(=O)N[C@@H](CC(N)=O)C(=O)N[C@@H](CCCCN)C(=O)N[C@H]2CSSC[C@@H]3NC(=O)CNC(=O)[C@H](C(C)C)NC(=O)[C@H](Cc4c[nH]cn4)NC(=O)[C@H](CSSC[C@H](NC(=O)[C@H](CC(C)C)NC(=O)[C@H](CCCCN)NC(=O)[C@@H](NC(=O)[C@@H](NC(=O)[C@H](CCC(=O)O)NC(=O)[C@H](CCC(=O)O)NC(=O)[C@H](CCSC)NC(=O)[C@H](Cc4c[nH]c5ccccc45)NC(=O)[C@H](CO)NC(=O)[C@H](C)N)C(C)C)[C@@H](C)CC)C(=O)NCC(=O)N[C@@H](CCCNC(=N)N)C(=O)N[C@@H](CCC(=O)O)C(=O)N[C@@H](CC(C)C)C(=O)N[C@@H](C(C)C)C(=O)N[C@@H](CCCNC(=N)N)C(=O)N[C@@H](C)C(=O)N[C@@H](CCC(N)=O)C(=O)N[C@@H]([C@@H](C)CC)C(=O)N[C@@H](C)C(=O)N[C@@H]([C@@H](C)CC)C(=O)N[C@H](C(=O)NCC(=O)N[C@@H](CCSC)C(=O)N[C@@H](CO)C(=O)N[C@H](C(=O)N[C@@H](Cc4c[nH]c5ccccc45)C(=O)N[C@@H](CO)C(=O)O)[C@@H](C)O)CSSC[C@@H](C(=O)O)NC(=O)[C@H](Cc4ccccc4)NC(=O)[C@H](CCCNC(=N)N)NC(=O)[C@H](C)NC(=O)[C@H](CC(C)C)NC(=O)[C@H](CO)NC(=O)[C@H](CCCNC(=N)N)NC(=O)[C@H](CCCCN)NC(=O)[C@H]([C@@H](C)O)NC3=O)NC2=O)cc1	0.16
CC[C@H](C)[C@@H]1NC(=O)[C@H](C)NC(=O)[C@H]([C@@H](C)CC)NC(=O)[C@H](CCC(N)=O)NC(=O)[C@H](C)NC(=O)[C@H](CCCNC(=N)N)NC(=O)[C@H](C(C)C)NC(=O)[C@H](CC(C)C)NC(=O)[C@H](CCC(=O)O)NC(=O)[C@H](CCCNC(=N)N)NC(=O)CNC(=O)[C@@H](NC(=O)[C@H](CC(C)C)NC(=O)[C@H](CCCCN)NC(=O)[C@@H](NC(=O)[C@@H](NC(=O)[C@H](CCC(=O)O)NC(=O)[C@H](CCC(=O)O)NC(=O)[C@H](CCSC)NC(=O)[C@H](Cc2c[nH]c3ccccc23)NC(=O)[C@H](CO)NC(=O)[C@H](C)N)C(C)C)[C@@H](C)CC)CSSC[C@@H]2NC(=O)[C@@H](NC(=O)[C@H](CCCCN)NC(=O)[C@H](CC(N)=O)NC(=O)[C@H](C)NC(=O)[C@H](CC(C)C)NC(=O)[C@H](C)NC(=O)[C@H](CO)NC(=O)[C@H](Cc3ccc(O)cc3)NC(=O)[C@H](CC(C)C)NC(=O)[C@@H](N)Cc3ccc(/C(C)=N/OCCNC(=O)CN(C)C(=O)CN(C)C(=O)CN(C)C(=O)CN(C)C(=O)[C@H](CO)NC(=O)CN(C)C(=O)CN(C)C(=O)CN(C)C(=O)CN(C)C(=O)CC[C@H](NC(=O)CCCCCCCCCCCCC(=O)O)C(=O)O)cc3)CSSC[C@H](NC(=O)CNC(=O)[C@H](C(C)C)NC(=O)[C@H](Cc3c[nH]cn3)NC2=O)C(=O)N[C@@H]([C@@H](C)O)C(=O)N[C@@H](CCCCN)C(=O)N[C@@H](CCCNC(=N)N)C(=O)N[C@@H](CO)C(=O)N[C@@H](CC(C)C)C(=O)N[C@@H](C)C(=O)N[C@@H](CCCNC(=N)N)C(=O)N[C@@H](Cc2ccccc2)C(=O)N[C@H](C(=O)O)CSSC[C@@H](C(=O)NCC(=O)N[C@@H](CCSC)C(=O)N[C@@H](CO)C(=O)N[C@H](C(=O)N[C@@H](Cc2c[nH]c3ccccc23)C(=O)N[C@@H](CO)C(=O)O)[C@@H](C)O)NC1=O	0.39
CCCCCCCCCCCCCCC(=O)N[C@@H](CCC(=O)N[C@@H](CCC(=O)O)C(=O)N[C@@H](CCC(=O)O)C(=O)N[C@@H](CCC(=O)O)C(=O)N[C@@H](CCC(=O)O)C(=O)N[C@@H](CCC(=O)O)C(=O)N[C@@H](CCC(=O)O)C(=O)NCCON=C(C)c1ccc(C[C@H](N)C(=O)N[C@@H](CC(C)C)C(=O)N[C@@H](Cc2ccc(O)cc2)C(=O)N[C@@H](CO)C(=O)N[C@@H](C)C(=O)N[C@@H](CC(C)C)C(=O)N[C@@H](C)C(=O)N[C@@H](CC(N)=O)C(=O)N[C@@H](CCCCN)C(=O)N[C@H]2CSSC[C@@H]3NC(=O)CNC(=O)[C@H](C(C)C)NC(=O)[C@H](Cc4c[nH]cn4)NC(=O)[C@H](CSSC[C@H](NC(=O)[C@H](CC(C)C)NC(=O)[C@H](CCCCN)NC(=O)[C@@H](NC(=O)[C@@H](NC(=O)[C@H](CCC(=O)O)NC(=O)[C@H](CCC(=O)O)NC(=O)[C@H](CCSC)NC(=O)[C@H](Cc4c[nH]c5ccccc45)NC(=O)[C@H](CO)NC(=O)[C@H](C)N)C(C)C)[C@@H](C)CC)C(=O)NCC(=O)N[C@@H](CCCNC(=N)N)C(=O)N[C@@H](CCC(=O)O)C(=O)N[C@@H](CC(C)C)C(=O)N[C@@H](C(C)C)C(=O)N[C@@H](CCCNC(=N)N)C(=O)N[C@@H](C)C(=O)N[C@@H](CCC(N)=O)C(=O)N[C@@H]([C@@H](C)CC)C(=O)N[C@@H](C)C(=O)N[C@@H]([C@@H](C)CC)C(=O)N[C@H](C(=O)NCC(=O)N[C@@H](CCSC)C(=O)N[C@@H](CO)C(=O)N[C@H](C(=O)N[C@@H](Cc4c[nH]c5ccccc45)C(=O)N[C@@H](CO)C(=O)O)[C@@H](C)O)CSSC[C@@H](C(=O)O)NC(=O)[C@H](Cc4ccccc4)NC(=O)[C@H](CCCNC(=N)N)NC(=O)[C@H](C)NC(=O)[C@H](CC(C)C)NC(=O)[C@H](CO)NC(=O)[C@H](CCCNC(=N)N)NC(=O)[C@H](CCCCN)NC(=O)[C@H]([C@@H](C)O)NC3=O)NC2=O)cc1)C(=O)O [AQ1-EEEEEE-Glu^γ-C14-CH3]	0.38
CCCCCCCCCCCCCCC(=O)N[C@@H](CCC(=O)N[C@@H](CCC(=O)O)C(=O)N[C@@H](CCC(=O)O)C(=O)N[C@@H](CCC(=O)O)C(=O)N[C@@H](CCC(=O)O)C(=O)N1CCC[C@H]1C(=O)N[C@@H](CCC(=O)O)C(=O)N[C@@H](CCC(=O)O)C(=O)N[C@@H](CCC(=O)O)C(=O)N[C@@H](CCC(=O)O)C(=O)N1CCC[C@H]1C(=O)N[C@@H](CCC(=O)O)C(=O)N[C@@H](CCC(=O)O)C(=O)N[C@@H](CCC(=O)O)C(=O)N[C@@H](CCC(=O)O)C(=O)N1CCC[C@H]1C(=O)N[C@@H](CCC(=O)O)C(=O)N[C@@H](CCC(=O)O)C(=O)N[C@@H](CCC(=O)O)C(=O)N[C@@H](CCC(=O)O)C(=O)NCCON=C(C)c1ccc(C[C@H](N)C(=O)N[C@@H](CC(C)C)C(=O)N[C@@H](Cc2ccc(O)cc2)C(=O)N[C@@H](CO)C(=O)N[C@@H](C)C(=O)N[C@@H](CC(C)C)C(=O)N[C@@H](C)C(=O)N[C@@H](CC(N)=O)C(=O)N[C@@H](CCCCN)C(=O)N[C@H]2CSSC[C@@H]3NC(=O)CNC(=O)[C@H](C(C)C)NC(=O)[C@H](Cc4c[nH]cn4)NC(=O)[C@H](CSSC[C@H](NC(=O)[C@H](CC(C)C)NC(=O)[C@H](CCCCN)NC(=O)[C@@H](NC(=O)[C@@H](NC(=O)[C@H](CCC(=O)O)NC(=O)[C@H](CCC(=O)O)NC(=O)[C@H](CCSC)NC(=O)[C@H](Cc4c[nH]c5ccccc45)NC(=O)[C@H](CO)NC(=O)[C@H](C)N)C(C)C)[C@@H](C)CC)C(=O)NCC(=O)N[C@@H](CCCNC(=N)N)C(=O)N[C@@H](CCC(=O)O)C(=O)N[C@@H](CC(C)C)C(=O)N[C@@H](C(C)C)C(=O)N[C@@H](CCCNC(=N)N)C(=O)N[C@@H](C)C(=O)N[C@@H](CCC(N)=O)C(=O)N[C@@H]([C@@H](C)CC)C(=O)N[C@@H](C)C(=O)N[C@@H]([C@@H](C)CC)C(=O)N[C@H](C(=O)NCC(=O)N[C@@H](CCSC)C(=O)N[C@@H](CO)C(=O)N[C@H](C(=O)N[C@@H](Cc4c[nH]c5ccccc45)C(=O)N[C@@H](CO)C(=O)O)[C@@H](C)O)CSSC[C@@H](C(=O)O)NC(=O)[C@H](Cc4ccccc4)NC(=O)[C@H](CCCNC(=N)N)NC(=O)[C@H](C)NC(=O)[C@H](CC(C)C)NC(=O)[C@H](CO)NC(=O)[C@H](CCCNC(=N)N)NC(=O)[C@H](CCCCN)NC(=O)[C@H]([C@@H](C)O)NC3=O)NC2=O)cc1)C(=O)O [AQ1-EEEEPEEEEPEEEEPEEEE-Glu^γ-C14-CH3]	0.33
